Assay results taken from patent publication US20250228784A1, “ANTIFIBROTIC COMPOSITION” (Sunshine Lake Pharma Co., Ltd., priority 2021, published 2025).

Assay: Initial research on stability of the active compound on long-term storage
Format: physicochemical
Settings: active compound alone, not formulated

- stability on long-term storage: good stability
Compound: CCCCCCN(CCCCCC)c1ccc(-n2c(C)nc(C)cc2=O)cc1F [compound having formula (I), 3-(4-(dihexylamino)-3-fluorophenyl)-2,6-dimethylpyrimidin-4(3H)-one]
